The target of the assay is KLF4 (Kruppel-Like Factor 4) (Homo sapiens, UniProt O43474). The assay is described as follows: SPR. In kind it is binding.
Chain of KLF4 (Kruppel-Like Factor 4) (O43474 whole entry): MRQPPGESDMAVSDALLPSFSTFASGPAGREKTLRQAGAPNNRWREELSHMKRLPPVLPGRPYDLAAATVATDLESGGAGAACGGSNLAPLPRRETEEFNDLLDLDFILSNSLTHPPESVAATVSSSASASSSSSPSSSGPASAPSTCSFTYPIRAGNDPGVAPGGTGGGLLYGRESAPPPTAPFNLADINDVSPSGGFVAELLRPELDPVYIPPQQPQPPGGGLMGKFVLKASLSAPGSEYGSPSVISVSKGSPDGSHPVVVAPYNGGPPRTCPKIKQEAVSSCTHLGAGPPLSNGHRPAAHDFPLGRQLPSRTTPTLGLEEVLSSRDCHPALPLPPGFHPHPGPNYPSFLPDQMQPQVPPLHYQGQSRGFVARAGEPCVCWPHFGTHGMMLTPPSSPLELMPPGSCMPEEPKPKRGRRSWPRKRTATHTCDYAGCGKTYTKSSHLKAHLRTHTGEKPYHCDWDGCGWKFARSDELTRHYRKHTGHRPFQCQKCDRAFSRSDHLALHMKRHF

The Kd is a measure of binding affinity in units of concentration. Low values mean a tighter complex, high ones a looser complex. The molecule `C[C@@H]1O[C@@H](O[C@H]2C(=O)c3c(O)cc(O)cc3O[C@@H]2c2ccc(O)c(O)c2)[C@H](O)[C@H](O)[C@H]1O` [Astilbin] returned a Kd of 48.9 µM.
